Consider three compounds from patent US7713987B2, “Pyrimidine-2,4-diamines and their uses” (Rigel Pharmaceuticals, Inc., priority 2005, dated 2010).

The nature of data set [1]: Pharmacokinetics of the compounds in sprague-dawley rats (oral and IV bolus, plasma LC/MS/MS). Format: in vivo. Here is the method:
Compounds were administered to rats orally at a dose of 4-5 mg/kg using PEG-400 as a vehicle. Selected compounds were also administered as an IV bolus at a dose of 1 mg/kg. Plasma samples were obtained from either the portal or jugular veins and analyzed by LC/MS/MS for both the parent pyrimidine-2,4-diamine and the prodrug compounds synthesized in the examples above. Bioavailability was calculated using the AUC of pyrimidine-2,4-diamine in jugular vein samples and the AUC of an IV bolus dose of pyrimidine-2,4-diamine. For selected compounds, portal vein samples were evaluated for both prodrug and pyrimidine-2,4-diamine and the information was used to determine the percent absorption of the orally administered dose.

Data set [2] is described as follows: Metabolic stability of prodrugs in rat hepatic microsomes. Format: in vitro ADME. Conditions: in the presence of NADPH, first value of cell, read-out: T1/2 (half-life of prodrug). The procedure: (§1) Selected compounds were incubated in rat and human hepatic microsomes (with and without NADPH) and analyzed by LC/MS/MS for both the prodrug and pyrimidine-2,4-diamine.
(§2) Studies were conducted in microsomes to determine whether the prodrug moieties could be hydrolyzed by CYP450 enzymes.

A short description of data set [3]: Metabolic stability of prodrugs in human hepatic microsomes. The data set is classed as in vitro ADME. Conditions: in the presence of NADPH, second value of cell, read-out: T1/2 (half-life of prodrug). Here is the method: as §1, §2

Molecules are shown by their SMILES.

Turning to `COc1cc(N(C(=O)OCCN2CCOCC2)c2ncc(F)c(Nc3ccc4c(n3)NC(=O)C(C)(C)O4)n2)cc(OC)c1OC` [Example 2, N4-(2,2-Dimethyl-3-oxo-4H-5-pyrido[1,4]oxazin-6-yl)-5-fluoro-N2-[[2-(morpholin-4-yl)ethoxy]carbonyl]-N2-(3,4,5-trimethoxyphenyl)-2,4-pyrimidinediamine], in data set [1] (AUC of prodrug in portal vein after oral dose vs AUC in jugular vein after IV dose, dose-corrected), the “% of prodrug absorbed” value is reported as 20%. For the same compound, the clearance in data set [1] (Sprague-Dawley, rat, plasma, IV bolus 1 mg/kg, read-out: Clearance rate of prodrug) was found to be 72 mL/min/kg. Moreover, the half-life in data set [2] and in data set [3] was less than 5 min each time.

With `COc1cc(N(C(=O)OCC2CCCCN2C)c2ncc(F)c(Nc3ccc4c(n3)NC(=O)C(C)(C)O4)n2)cc(OC)c1OC` (centres unmarked) [Example 3], the half-life in data set [2] and in data set [3] was less than 5 min in each case.

`COc1cc(N(C(=O)N[C@H](C(=O)OC(C)(C)C)C(C)C)c2ncc(F)c(Nc3ccc4c(n3)NC(=O)C(C)(C)O4)n2)cc(OC)c1OC` [Example 8, 1S—N2-[[-1-(t-Butoxycarbonyl)-2-methylpropyl]aminocarbonyl]-N4-(2,2-dimethyl-3-oxo-4H-5-pyrido[1,4]oxazin-6-yl)-5-fluoro-N2-(3,4,5-trimethoxyphenyl)-2,4-pyrimidinediamine]: the results for the half-life in data set [2] and in data set [3] were 35 min and 10 min, respectively.
